From patent publication US20120003661A1, “METHODS AND DEVICES FOR THE SELECTIVE DETECTION OF MICROORGANISMS” (C3 JIAN, INC., priority 2010, published 2012)
Entries after “also recorded” stand apart in the source; their conditions may differ. Where two headings read alike, the source gives them in different places. Ends that are not written are not given here.

Experiments:
S. epidermidis = assay: MIC of antimicrobial peptides (Table 4); type: cell-based, Staphylococcus epidermidis
E. faecalis = assay: MIC of antimicrobial peptides (Table 4); type: cell-based, Enterococcus faecalis
B. subtilis = assay: MIC of antimicrobial peptides (Table 4); type: cell-based, Bacillus subtilis
T. rubrum = assay: MIC of antimicrobial peptides (Table 4); type: cell-based, Trichophyton rubrum
A. niger = assay: MIC of antimicrobial peptides (Table 4); type: cell-based, Aspergillus niger
C. albicans = assay: MIC of antimicrobial peptides (Table 4); type: cell-based, Candida albicans
MRSA = assay: MIC of antimicrobial peptides (Table 4); type: cell-based, Methicillin-resistant Staphylococcus aureus
S. pneumoniae = assay: MIC of antimicrobial peptides (Table 4); type: cell-based, Streptococcus pneumoniae
E. coli = assay: MIC of antimicrobial peptides (Table 4); type: cell-based, Escherichia coli
C. difficile = assay: MIC of antimicrobial peptides (Table 4); type: cell-based, Clostridium difficile
A. baumannii = assay: MIC of antimicrobial peptides (Table 4); type: cell-based, Acinetobacter baumannii
[1] = test system: bacteria, fungi, and/or yeasts; type: binding
S. mutans = assay: MIC of antimicrobial peptides (Table 4); type: cell-based, Streptococcus mutans
C. jeikeium = assay: MIC of antimicrobial peptides (Table 4); type: cell-based, Corynebacterium jeikeium
P. aeruginosa = assay: MIC of antimicrobial peptides (Table 4); type: cell-based, Pseudomonas aeruginosa

Which “Organism MIC” value (S. epidermidis) does the source give for MRFGSLALVAYDSAIKHSWPRPSSVRRLRM [PF-672] here?
The value was “S. epidermidis, 0.39 μM”.

And the “Organism MIC” value (E. faecalis)?
Its value is “E. faecalis, 3.13 μM”.

And the “Organism MIC” value (B. subtilis; B. subtilis)?
The value was “B. subtilis, 0.78 μM”.

And the “Organism MIC” value (T. rubrum)?
Its value is “T. rubrum, 0.78 μM”.

What about the “Organism MIC” value (A. niger) of the same substance?
Its value is “A. niger, 3 μM”.

What about the “Organism MIC” value (C. albicans) of the same substance?
Its value is “C. albicans, 1.56 μM”.

What about the “Organism MIC” value (MRSA) of the same substance?
Its value is “MRSA, 1.56 μM”.

How did the “Organism MIC” value (S. pneumoniae) turn out when “TKKIELKRFVDAFVKKSYENYILERELKKLIKAINEELPTK [PF-600]” was run?
The value was “S. pneumoniae, 50 μM”.

And the “Organism MIC” value (E. coli)?
Its value is “E. coli, 50 μM”.

How did the “Organism MIC” value (C. difficile) turn out when FELVDWLETNLGKILKSKSA-NH2 [PF-522] was run?
The value was “C. difficile, 25 μM”.

What does the source list for MGIIAGIIKFIKGLIEKFTGK [PF-006]?
Organism MIC (B. subtilis; B. subtilis): B. subtilis, 25 μM; Organism MIC (A. baumannii): A. baumannii, 50 μM; Organism MIC (MRSA): MRSA, 50 μM; Target(s) ([1]; microorganism(s) listed as target(s) of the targeting peptide, wrapped target lists given cell by cell): S. epidermidis, M. luteus, E. coli,; also recorded: P. aeruginosa, MRSA, E. faecalis,; also recorded: C. jeikeium, C. jejuni

With “FESKILNASKELDKEKKVNTALSFNSHQDFAKAYQNGKI [PF-606]” as the substance, how does the “Organism MIC” value (S. epidermidis) read?
Its value is “S. epidermidis, 50 μM”.

And the “Organism MIC” value (S. pneumoniae)?
The value was “S. pneumoniae, 50 μM”.

And the “Organism MIC” value (E. coli)?
Its value is “E. coli, 50 μM”.

What about the “Organism MIC” value (MRSA) of the same substance?
Its value is “MRSA, 50 μM”.

What about the “Organism MIC” value (S. mutans) of the same substance?
The value was “S. mutans, 50 μM”.

How did the “Organism MIC” value (A. baumannii) turn out when SKFKVLRKIIIKEYKGELMLSIQKQR [PF-530] was run?
Its value is “A. baumannii, 25 μM”.

With YIQFHLNQQPRPKVKKIKIFL-NH2 [PF-531] as the substance, how does the “Organism MIC” value (S. epidermidis) read?
The value was “S. epidermidis, 50 μM”.

And the “Organism MIC” value (B. subtilis; B. subtilis)?
Its value is “B. subtilis, 25 μM”.

What about the “Organism MIC” value (T. rubrum) of the same substance?
Its value is “T. rubrum, 50 μM”.

What about the “Organism MIC” value (C. difficile) of the same substance?
The value was “C. difficile, 12.5 μM”.

What about the “Organism MIC” value (C. jeikeium) of the same substance?
Its value is “C. jeikeium, 6.25 μM”.

And the “Organism MIC” value (A. niger)?
The value was “A. niger, 25 μM”.

What about the “Organism MIC” value (A. baumannii) of the same substance?
The value was “A. baumannii, 25 μM”.

And the “Organism MIC” value (P. aeruginosa)?
Its value is “P. aeruginosa, 50 μM”.

And the “Organism MIC” value (S. mutans)?
Its value is “S. mutans, 12.5 μM”.

With KNKKQTDILEKVKEILDKKKKTKSVGQKLY [PF-538] as the substance, how does the “Organism MIC” value (C. difficile) read?
The value was “C. difficile, 25 μM”.

And the “Organism MIC” value (A. baumannii)?
Its value is “A. baumannii, 25 μM”.

What does the source list for “GSVIKKRRKRMAKKKHRKLLKKTRIQRRRAGK [PF-527]”?
Organism MIC (S. epidermidis): S. epidermidis, 25 μM; Organism MIC (B. subtilis): B. subtilis, 12.5 μM; Organism MIC (T. rubrum): T. rubrum, 25 μM; Organism MIC (C. jeikeium): C. jeikeium, 6.25 μM; Organism MIC (A. niger): A. niger, 50 μM; Organism MIC (MRSA): MRSA, 50 μM; Organism MIC (P. aeruginosa): P. aeruginosa, 50 μM; Target(s) [1]: S. epidermidis, M. luteus, P. mirabilis,; also recorded: E. coli, P. aeruginosa,; also recorded: MRSA, S. pneumoniae, E. faecalis,; also recorded: C. jeikeium, C. jejuni

With “MKRRRCNWCGKLFYLEEKSKEAYCCKECRKKAKKVKK [PF-307]” as the substance, how does the “Organism MIC” value (B. subtilis; B. subtilis) read?
Its value is “B. subtilis, 50 μM”.

What about the “Organism MIC” value (T. rubrum) of the same substance?
The value was “T. rubrum, 50 μM”.

What about the “Organism MIC” value (C. albicans) of the same substance?
The value was “C. albicans, 50 μM”.

How did the “Organism MIC” value (S. epidermidis) turn out when LSLATFAKIFMTRSNWSLKRFNRL [PF-278] was run?
The value was “S. epidermidis, 50 μM”.

What about the “Organism MIC” value (T. rubrum) of the same substance?
The value was “T. rubrum, 50 μM”.

And the “Organism MIC” value (C. albicans)?
The value was “C. albicans, 50 μM”.

Which results are given for FIRKFLQKLHL [K-16]?
Organism MIC (MRSA): MRSA, 25 μM; Organism MIC (P. aeruginosa): P. aeruginosa, 12.5 μM; Organism MIC (S. mutans): S. mutans, 8 μM
